Experimental data: EP0061162A2, “Cephalosporin derivatives, pharmaceutical compositions containing the same and production thereof” (KYOTO YAKUHIN KOGYO KABUSHIKI KAISHA, priority 1981, dated 1982)

Test: Acute oral toxicity test in mice
Details: mouse, in vivo, suspension in 1% methylcellulose solution, male mice (ICR, 5-week-old), doses 0.5 g to 5.0 g/kg
Method: The acut oral toxicity data for cephalosporin derivatives (I) and acid addition salt of the present invention in mice are shown below.
Animals: Male mice (ICR, 5-week-old), n=3
Method of administration: The cephalosporin derivatives as prepared in the above synthesis examples were administered in the form of suspension in 1% methylcellulose solution to mice orally at doses of 0.5 g to 5.0 g/kg.

CCOC(=O)OC(C)OC(=O)C1=CCS[C@@H]2[C@H](NC(=O)/C(=N\OC)c3csc(N)n3)C(=O)N12 (single isomer, unassigned) [Compound 1, l-(ethoxycarbonyloxy)ethyl 7-[2-(2-aminothiazol-4-yl)-2-methoxyiminoacetamido]-3-cephem-4-carboxylate (syn isomer)]
LD50: > 5000 mg/kg
